In series [1] the test system is MCF-7 human breast cancer cells. As to conditions: nude mice, MCF-7 cells; cited from earlier work.
Series [2] deals with PC-3 human prostate cancer cells. Conditions: nude mice, PC-3 cells; cited from earlier work.
Series [3] has as its system NCI-H838 human non-small cell lung cancer cells. Conditions: nude mice; cited from earlier work.
The conditions of series [4]: rat, in vivo, iv; cited from earlier work.
The subject of series [5] is MCF-7 human breast cancer cells. Nature of the series: Doxorubicin-induced apoptotic cell death of breast cancer cells. The class given is cell-based. As to conditions: MCF-7 cells. How it is done: The MCF-7 human breast cancer cells were cultured in Eagle's Minimum Essential Medium supplemented with 10% non-inactivated fetal bovine serum and 0.05 mM 2-mercaptoethanol. The effects of PACAP38 and N-acetyl[Ala^16,17,D-Lys^38]PACAP38 on apoptotic cell death were assessed by the quantitative determination of cytoplasmic histone-associated DNA-fragmentation (mono- and oligonucleosomes) after exposure to doxorubicin for 48 hours. Each value represents the mean plus/minus the standard deviation of three determinations. **p<0.01 compared to the doxorubicin-treated (control) cells.
At the highest dose tested (10^−6 M), both peptides reduced the apoptotic cell death of these breast cancer cells by more than 50%.

For series [6] the following is noted: normal human volunteers and a patient with multiple myeloma; cited from earlier work.
The test system of series [7] is rat hippocampal neuron/glia co-cultures. As to conditions: cited from earlier work.
A further series has as its system Male C57BL/6 mice. The series is described as follows: Cisplatin-induced nephrotoxicity in mice. The class given is in vivo, mouse. As to conditions: cisplatin 20 mg/kg i.p., FIG. 10. How it is done: (§1) Male C57BL/6 mice were given a single intraperitoneal injection of 20 mg/kg of cisplatin. Twenty nanomoles of PACAP38 were given intraperitoneally 1 hour before the injection of cisplatin and additional doses were given at 24 and 48 hours after the initial dose. The control group of mice was injected intraperitoneally with the same volume of saline as for the injections of cisplatin and PACAP38 on the same schedule. The mice were euthanized 24 hours after the final injection of PACAP38. Each value represents the mean plus/minus the standard error of four determinations. ***p<0.001 and **p<0.01 compared to the group treated only with cisplatin.
as §1, with “PACAP38. TNF-α was extracted from one kidney of each mouse and quantified with an enzyme-linked immunosorbent assay.” for “PACAP38.”
Male C57BL/6 mice were given a single intraperitoneal injection of 20 mg/kg of cisplatin. Twenty nanomoles of PACAP38 were given intraperitoneally 1 hour before the injection of cisplatin and additional doses were given at 24 and 48 hours after the initial dose. The control group of mice were injected intraperitoneally with the same volume of saline as for the injections of cisplatin and PACAP38 on the same schedule. The mice were euthanized 24 hours after the final injection of PACAP38, and the kidneys were removed and fixed in 10% formalin. The fixed sections were stained with hematoxylin and eosin. The sections of the kidneys from control mice show intact renal tubular epithelial cells and well-preserved brush border membranes. The kidneys from mice treated with cisplatin had extensive tubular damage, tubular dilations, intratubular debris, and intratubular casts. […] Tubular damage was more pronounced in the outer cortex in the cisplatin treated mice. The photomicrographs on the left side were made at a lower magnification (×160) than the photomicrographs on the right side (×320). The results described in FIGS. 5, 6, 7, and 8 were from the same experiment.
as §1, with “six” for “four”
as §1, with “The cytoprotective effect of PACAP38 against cisplatin-induced nephrotoxicity was also seen in a common in vivo model. Male” for “Male”, “PACAP38.” for “PACAP38. Each value represents the mean plus/minus the standard error of four determinations. ***p<0.001 and **p<0.01 compared to the group treated only with cisplatin.”

Series [8] has as its system light-chain immunoglobulin-secreting human myeloma cells. Nature of the series: Carmustine-induced apoptotic cell death of myeloma cells. Type of series: cell-based. As to the method:
The light-chain immunoglobulin-secreting human myeloma cells were cultured in RPMI 1640 medium supplemented with 10% non-inactivated fetal bovine serum and 0.05 mM 2-mercaptoethanol. The effects of PACAP38, and [Ala^22]PACAP38 on apoptotic cell death was assessed by the quantitative determination of cytoplasmic histone-associated DNA-fragmentation (mono- and oligonucleosomes) after exposure to carmustine for 48 hours. Each value represents the mean plus/minus the standard deviation of three determinations. **p<0.01 and *p<0.05 compared to the carmustine-treated (control) cells.

The test system is the same in series [9]. Nature of the series: Doxorubicin-induced apoptotic cell death of myeloma cells. Type of series: cell-based. How it is done:
The light-chain immunoglobulin-secreting human myeloma cells were cultured in RPMI 1640 medium supplemented with 10% non-inactivated fetal bovine serum and 0.05 mM 2-mercaptoethanol. The effects of PACAP38, and [Ala^16,17,D-Lys^38]PACAP38 on apoptotic cell death was assessed by the quantitative determination of cytoplasmic histone-associated DNA-fragmentation (mono- and oligonucleosomes) after exposure to doxorubicin for 48 hours. Each value represents the mean plus/minus the standard deviation of three determinations. **p<0.01 and *p<0.05 compared to the doxorubicin-treated (control) cells.
At the lowest dose tested (10^−8 M), both peptides reduced the doxorubicin-induced apoptotic cell death of these malignant plasma cells.

In series [10] the test system is HK-2 human kidney cells. The series is described as follows: Cisplatin-induced apoptotic cell death of human renal proximal tubule epithelial cells (histone-associated DNA fragmentation). As to conditions: HK-2 cells, comparable concentrations, FIG. 4. Type of series: cell-based. As to the method: The HK-2 human kidney cells were cultured in Keratinocyte-Serum Free Medium supplemented with recombinant epidermal growth factor and bovine pituitary extract. The dose-dependent inhibitory effect of PACAP38 on apoptotic cell death was assessed by the quantitative determination of cytoplasmic histone-associated DNA-fragmentation (mono- and oligonucleosomes) after exposure to cisplatin for 24 hours. Each value represents the mean plus/minus the standard error of four determinations in three replicate experiments. **p<0.01 compared to the cisplatin-treated (control) cells.
The HK-2 human kidney cells were cultured in Keratinocyte-Serum Free Medium supplemented with recombinant epidermal growth factor and bovine pituitary extract. The dose-dependent inhibitory effect of PACAP38 on apoptotic cell death was assessed by the quantitative determination of cytoplasmic histone-associated DNA-fragmentation (mono- and oligonucleosomes) after exposure to cisplatin for 24 hours. Each value represents the mean plus/minus the standard deviation of four determinations in three different experiments. **p<0.01 and *p<0.05 compared to the cisplatin-treated (control) cells.

Series [11] relates to Jurkat human T-lymphocyte leukemia cells. The series is described as follows: Etoposide-induced apoptotic cell death of leukemia cells. The class given is cell-based. Conditions: Jurkat cells. As to the method: The Jurkat human T-lymphocyte leukemia cells were cultured in RPMI 1640 medium supplemented with 10% non-inactivated fetal bovine serum. The effects of PACAP27 and PACAP38 on apoptotic cell death was assessed by the quantitative determination of cytoplasmic histone-associated DNA-fragmentation (mono- and oligonucleosomes) after exposure to etoposide for 48 hours. Each value represents the mean plus/minus the standard deviation of three determinations. **p<0.01 and *p<0.05 compared to the etoposide-treated (control) cells.

Series [12] has as its system PC-12 rat pheochromocytoma cells. The series is described as follows: Cisplatin-induced apoptotic cell death of pheochromocytoma cells. The class given is cell-based. As to conditions: PC-12 cells. How it is done: The PC-12 rat pheochromocytoma cells were cultured in F-12K medium supplemented with 15% horse serum and 2.5% fetal bovine serum. The dose-dependent inhibitory effects of PACAP38 and the PACAP38 analogs on apoptotic cell death were assessed by the quantitative determination of cytoplasmic histone-associated DNA-fragmentation (mono- and oligonucleosomes) after exposure to cisplatin for 24 hours. Each value represents the mean plus/minus the standard error of four determinations. **p<0.01 and *p<0.05 compared to the cisplatin-treated (control) cells.

For another series, the system named is L-132 human lung cells. The series is described as follows: Bleomycin-induced apoptotic cell death of human pulmonary epithelial cells. Type of series: cell-based. As to conditions: L-132 cells, peptide added to the medium, FIG. 12. As to the method:
The L-132 human lung cells were cultured in Eagle's Minimum Essential Medium supplemented with 10% fetal bovine serum. […] Each value represents the mean plus/minus the standard deviation of four determinations in three replicate experiments. **p<0.01 and *p<0.05 compared to the bleomycin-treated (control) cells.
At the highest dose tested (10^−6 M), all three peptides reduced the apoptotic cell death of these epithelial cells by more than 60%. […] Therefore, pre- and/or post-treatment of subjects undergoing bleomycin-based cancer chemotherapy with therapeutic doses of PACAP38 and/or PACAP analogs should result in a higher maximal tolerable dose of bleomycin, and an increased frequency of partial clinical responses and/or an increased number of complete remissions.

Series [13] concerns HK-2 human kidney cells. The series is described as follows: Doxorubicin-induced apoptotic cell death of human renal proximal tubule epithelial cells. The class given is cell-based. Conditions: HK-2 cells, peptide added to the medium, FIG. 11. How it is done:
The HK-2 human kidney cells were cultured in Keratinocyte-Serum Free Medium supplemented with recombinant epidermal growth factor and bovine pituitary extract. […] Each value represents the mean plus/minus the standard deviation of four determinations in three replicate experiments. **p<0.01 and *p<0.05 compared to the doxorubicin-treated (control) cells.
At the highest dose tested (10^−6 M), all three peptides reduced the apoptotic cell death of these epithelial cells by more than 60%.

Square brackets hold non-standard residues; d marks the D form. Ends that are not written are not given here.

Here are results for ten substances from patent publication US20110268789A1, “USE OF PITUITARY ADENYLATE CYCLASE-ACTIVATING POLYPEPTIDE (PACAP) AND PACAP ANALOGS AS ADJUNCTIVE TREATMENTS WITH ANTICANCER AGENTS” (priority 2008, published 2011).

In the case of “PACAP(6-38) (FTDSYSRYRKQMAVKKYLAAVLGKRYKQRVKNK; ends and bridges not checked; UniProt P18509 137-169, looked up, fragment) [a PACAP/VIP receptor antagonist]”, the growth of xenografts entry in series [1], in series [2] and in series [3] was “inhibited the growth” each time.
As to [^125I]-PACAP38, the “half-life in the bloodstream” value in series [4] was 5 to 6 min.
Take N-acetyl[Ala^16,17,D-Lys^38]PACAP38: in [5], the “relative potency in reducing doxorubicin-induced apoptotic cell death” value was “slightly more potent than PACAP38”. Further, the “reduction in doxorubicin-induced apoptotic cell death” value in [5] (doxorubicin 48 hours, FIG. 14) was “dose-dependent reduction”.
Consider “pituitary adenylate cyclase-activating polypeptide [PACAP]”, for which the untoward effect reported result in series [6] is “transient flushing”. Further, in [7], the “peak of bimodal dose-response curve for prevention of gp120-induced neuronal death (lower peak)” value was 10^−13 M and the “peak of bimodal dose-response curve for prevention of gp120-induced neuronal death (upper peak)” value is reported as 10^−10 M.
In the case of [D-Ser^2,Lys^38-palmitoyl]PACAP38, the “relative potency as cytoprotectants against cisplatin-induced impairment of kidney function (serum creatinine)” value in the series with Male C57BL/6 mice was “less potent”.
Take “[Ala^22]PACAP38 (HSDGIFTDSYSRYRKQMAVKKALAAVLGKRYKQRVKNK; ends and bridges not checked)”: the “effect on carmustine-induced apoptotic cell death” value was “enhancement” in series [8] (carmustine 48 hours, FIG. 17) and “significantly enhanced” in [8] (highest dose tested (10^−6 M)).
Turning to “[Ala^16,Ala^17,D-Lys^38]PACAP38 (HSDGIFTDSYSRYRKAAAVKKYLAAVLGKRYKQRVKN[dK]; ends and bridges not checked) [[Ala^16,17,D-Lys^38]PACAP38]”, the “effect on doxorubicin-induced apoptotic cell death (dose-response)” value in series [9] (doxorubicin 48 hours, FIG. 16) was “biphasic dose-response effect”. Moreover, the “effect on doxorubicin-induced apoptotic cell death” value in [9] (highest dose tested (10^−6 M)) is on record as “small, but not significant, enhancement”; in series [9] (lowest dose tested (10^−8 M)), “reduced”.
With [Aib^2]PACAP38, in the series with HK-2 human kidney cells [10], the “relative effectiveness as protectants against cisplatin-induced apoptotic cell death” value is “similarly effective”.
Turning to “PACAP27 (HSDGIFTDSYSRYRKQMAVKKYLAAVL-NH2)”, the “reduction in etoposide-induced apoptotic cell death” value in series [11] (etoposide 48 hours, FIG. 15) is given as “small reduction”. The “significance of the reduction of etoposide-induced apoptotic cell death” value in [11] (highest dose tested 10^−6 M) is “did not have a significant effect”.
As for “[Lys^34]PACAP38 (HSDGIFTDSYSRYRKQMAVKKYLAAVLGKRYKQKVKNK; ends and bridges not checked)”, in [12] (cisplatin 24 hours, FIG. 13), the “reduction in cisplatin-induced apoptotic cell death” value was “dose-dependent reduction”. Also, in series [12] (highest dose tested (10^−6 M)), the “reduction of cisplatin-induced apoptotic cell death” value is given as “significantly reduced”. Besides, the “reduction in bleomycin-induced apoptotic cell death” value with L-132 human lung cells is on record as “significant dose-dependent reduction”. The “reduction in doxorubicin-induced apoptotic cell death” value in the series on HK-2 human kidney cells [13] is given as “significant dose-dependent reduction”.
